# In US6406701B1, “Method and compositions for preventing or reducing HIV infection” (priority 2000, dated 2002):
# Read-outs that look alike come from different tables or passages of the source.
# B1: Thioredoxin: Human Thioredoxin purified from CD4+ T MP6 cells; uncompetitive inhibitor of es-LAPase; also linked to EDC/DADPA matrix (protein, UniProt P10599 2-105, looked up)
# Thioredoxin: VKQIESKTAFQEALDAAGDKLVVVDFSATWCGPCKMIKPFFHSLSEKYSNVIFLEVDVDDCQDVASECEVKCMPTFQFFKKGQKVGEFSGANKEKLEATINELV
# modifications: linked to EDC/DADPA matrix
# Tests used:
# HIV [1] = details: Tamoxifen concentrations of 10^−6M or higher; cited from earlier work
# HIV-1 (HTLVIIIb) [2] = type: cell-based; details: for Cytopathicity / Proviral Load: anti-estrogen 10^−7M combined with Mab 7B6 and thioredoxin matrices
# Procedure: (§1) In the continued presence of each of the factors aforementioned, the cells were subsequently infected at a multiplicity of two infective viral particles per cell for two hours at 25° C. with constant agitation in a final volume of 1.0 ml. […] Syncytium formation was evaluated by light microscopy on days 3, 5 and 7.
# HIV-1 (HTLVIIIb) [3] = type: cell-based; details: Day 5 post-infection; anti-estrogen 10^−7M combined with Mab 7B6 and thioredoxin matrices
# Procedure: as §1
# Prior to infection, HUT78 cells were washed three times with PBS and the cell viability was determined. Infection was performed as described above. At indicated time intervals, 1.0 mil aliquots of were taken and p24 antigen quantified using a commercial ELISA kit (p24 Antigen Capture ELISA, ABBOTT Diagnostics Division), following the instructions of the manufacturer.
# es-LAPase = es-LAPase enzyme kinetics and inhibition (l-leucine-β-naphthylamide, 330 nm); type: biochemical, human; details: for es-LAPase reaction rate versus control es-LAPase (FIG. 3): 167 μM Bestatin, 167 μM reduced glutathione, 17 μM reduced thioredoxin; for mode of es-LAPase inhibition: from Vmax, Km, Ki of Table 4
# Procedure: The kinetic assays were performed using a Spectronic Genesys 5 spectrophotometer from Milton Roy (Rochester, N.Y.). Absorbance was recorded every sixty seconds, over a period of 30 min. Enzyme kinetic assays were performed using 8.0×10^−2 U of es-LAPase in a final reaction volume of 600 μl and triplicate samples. […] A corresponding blank without es-LAPase was used as baseline. Both of the cuvettes were transferred to the spectrophotometer where the 1-leucine-β-naphthylamide solution was added last, marking time zero of the reaction.
# LAPase = assay: Estrogen incubation with purified LAPase preparations; type: biochemical; details: purified enzyme alone
# Procedure: (§2) Control cells were cultured in the absence of 17-β-Estradiol.). During the same period, LAPase in cell supernatants of control cells remain unchanged. In addition, LAPase activity was determined in supernatants of primary parental cell lines immunoprecipitated with anti-LAP-Protein G MAb 7B6 bound antibodies. […] In addition, there was no effect of estrogen incubation on LAPase activity in purified preparations of this enzyme alone.
# HIV [4] = assay: HIV infectivity of HUT78 cells by reverse transcriptase activity with or without 17-β-Estradiol; details: for RT Activity: estrogen 10^−7 M
# Procedure: The sensitivity of CD4^+ T-HUT78 cells to HIV viral infection was determined by measuring the activity of reverse transcriptase in cells infected in the presence/absence of 17-β-Estradiol.
# HUT78 cells = assay: Extracellular LAPase activity of HUT78 cells incubated with 17-β-Estradiol; type: cell-based
# [5] = test system: breast carcinoma parental cells; assay: LAPase release from primary breast carcinoma parental cells after estrogen stimulation (supernatants immunoprecipitated with MAb 7B6, fluorometric assay); type: cell-based, human
# Procedure: as §2
# Primary parental breast carcinoma cells obtained from human tumour biopsies were stimulated with 100 nM 17-β-Estradiol for 24 hours or cell media alone as a control. The cell media was RPMI 1640 medium+10% FCS+100 U/ml Penicillin+100 μg/ml Streptomycin. Cell supernatants were collected and then dialyzed against PBS in seamless cellulose tubing (MW 12,400) for 12 hours at 4° C. Es-LAPase was subsequently purified from the dialyzed cell supernatants using HPLC-gel permeation followed by DEAE-Cellulose and Bestatin-Sepharose affinity Chromatography. Briefly, the cell supernatant was applied to a Bio-Sil SEC-250 column (600×7.5 mm) previously equilibrated in a buffer containing 100 mM Sodium Phosphate buffer pH 6.8, 100 mM Na2SO4, 1 μM ZnCl2 and 10% glycerol. […]
# Es-LAPase activities were determined fluorometrically using leucine-b-naphthylamide as the substrate [Kuramochi, H., et al. (1987) J. Antibiot., 40,1605-1611].
# [6] = es-LAPase with 167 μM inhibitor
molecule,measurement,setting,value
CC/C(=C(\c1ccccc1)c1ccc(OCCN(C)C)cc1)c1ccccc1 [Tamoxifen],inhibition of HIV infection,HIV [1],incomplete inhibition
same,Cytopathicity,HIV-1 (HTLVIIIb) [2]; Day 5 post-infection,0 Syncytia/well
same,Proviral Load,HIV-1 (HTLVIIIb) [2]; Day 5 post-infection,0 copies
same,P24,HIV-1 (HTLVIIIb) [3],0 nmol/mL
O=C(c1ccc(OCCN2CCCCC2)cc1)c1c(-c2ccc(O)cc2)sc2cc(O)ccc12 [Raloxifene],Cytopathicity,HIV-1 (HTLVIIIb) [2]; Day 5 post-infection,3.3 ± 0.1 Syncytia/well
same,Proviral Load,HIV-1 (HTLVIIIb) [2]; Day 5 post-infection,8 copies
same,P24,HIV-1 (HTLVIIIb) [3],0.01 ± .002 nmol/mL
CC/C(=C(\c1ccc(I)cc1)c1ccc(OCCN2CCCC2)cc1)c1ccccc1 [Idoxifene],Cytopathicity,HIV-1 (HTLVIIIb) [2]; Day 5 post-infection,0 Syncytia/well
same,Proviral Load,HIV-1 (HTLVIIIb) [2]; Day 5 post-infection,0 copies
same,P24,HIV-1 (HTLVIIIb) [3],0 nmol/mL
N[C@@H](CCC(=O)N[C@@H](CS)C(=O)NCC(=O)O)C(=O)O [Glutathione],es-LAPase reaction rate versus control es-LAPase (FIG. 3),es-LAPase,significant slower rates
same,Vmax,es-LAPase; [6],17.2 ± 1.5 10^−6 M/min
same,mode of es-LAPase inhibition,es-LAPase,noncompetitive
C[C@]12CCC(=O)C(O)=C1CC[C@@H]1[C@@H]2CC[C@]2(C)C(=O)CC[C@@H]12 [4-hydroxyandrostenedione],Cytopathicity,HIV-1 (HTLVIIIb) [2]; Day 5 post-infection,4.0 ± 0.4 Syncytia/well
same,Proviral Load,HIV-1 (HTLVIIIb) [2]; Day 5 post-infection,12 copies
same,P24,HIV-1 (HTLVIIIb) [3],0.02 ± .001 nmol/mL
CC/C(=C(/c1ccc(OCCN(C)C)cc1)c1cccc(O)c1)c1ccccc1 [Droloxifene],Cytopathicity,HIV-1 (HTLVIIIb) [2]; Day 5 post-infection,5.2 ± 0.6 Syncytia/well
same,Proviral Load,HIV-1 (HTLVIIIb) [2]; Day 5 post-infection,14 copies
same,P24,HIV-1 (HTLVIIIb) [3],0.04 ± .003 nmol/mL
"C#C[C@]1(O)CC[C@H]2[C@@H]3CC[C@H]4C[C@@H](O)CC[C@@H]4[C@H]3CC[C@@]21C [3β,5α-tetrahydro Norethisterone]",Cytopathicity,HIV-1 (HTLVIIIb) [2]; Day 5 post-infection,0 Syncytia/well
same,Proviral Load,HIV-1 (HTLVIIIb) [2]; Day 5 post-infection,2 copies
same,P24,HIV-1 (HTLVIIIb) [3],0 nmol/mL
CC(C)C[C@H](NC(=O)[C@@H](O)[C@H](N)Cc1ccccc1)C(=O)O [Bestatin],es-LAPase reaction rate versus control es-LAPase (FIG. 3),es-LAPase,clearly inhibits
same,Vmax,es-LAPase; [6],34.0 ± 3.9 10^−6 M/min
same,mode of es-LAPase inhibition,es-LAPase,competitive
same,HIV-1 proviral copies,"HIV-1 (HTLVIIIb) [2]; Day 0 post-infection, 120 μg/ml",0 copies
same,HIV-1 proviral copies,"HIV-1 (HTLVIIIb) [2]; Day 3 post-infection, 120 μg/ml",7 ± 2 copies
same,HIV-1 proviral copies,"HIV-1 (HTLVIIIb) [2]; Day 5 post-infection, 120 μg/ml",29 ± 3 copies
same,HIV-1 proviral copies,"HIV-1 (HTLVIIIb) [2]; Day 7 post-infection, 120 μg/ml",457 ± 12 copies
17-β-Estradiol,effect of estrogen incubation on LAPase activity in purified preparations of the enzyme,LAPase,no effect
same,HIV viral infectivity (RT activity) relative to control cells infected in the absence of estrogen,HIV [4]; 3 days and 5 days post infection,approximately 4 times
same,RT Activity,HIV [4]; Day 0 (Infection),0.68 cpm × 10^2/10 μl
same,RT Activity,HIV [4]; Day 3 (Post Infection),72.42 cpm × 10^2/10 μl
same,RT Activity,HIV [4]; Day 5 (Post Infection),124.44 cpm × 10^2/10 μl
same,concentration of maximum stimulation of LAPase release,HUT78 cells,10^−7 M
same,"LAPase activity, 17-β-Estradiol Stimulation",HUT78 cells; [β-Estradiol] 10^−5 M,10.8 U* × 10^−5/ml
same,"LAPase activity, 17-β-Estradiol Stimulation",HUT78 cells; [β-Estradiol] 10^−6 M,20.4 U* × 10^−5/ml
same,"LAPase activity, 17-β-Estradiol Stimulation",HUT78 cells; [β-Estradiol] 10^−7 M,148.6 U* × 10^−5/ml
same,"LAPase activity, 17-β-Estradiol Stimulation",HUT78 cells; [β-Estradiol] 10^−8 M,110.7 U* × 10^−5/ml
same,extracellular LAPase activity of estrogen stimulated cells,"[5]; 100 nM, 24 hours, supernatants immunoprecipitated with anti-LAP-Protein G MAb 7B6",7.7×10^−5 U/ml
same,estrogen concentration of maximum release of LAPase,"[5]; breast carcinoma parental cells, 24 hours of incubation",100 nM
B1,es-LAPase reaction rate versus control es-LAPase (FIG. 3),es-LAPase,significant slower rates
same,Km,es-LAPase; es-LAPase with 17 μM inhibitor,23.4 ± 0.6 µM
same,Vmax,es-LAPase; es-LAPase with 17 μM inhibitor,5.31 ± 0.02 10^−6 M/min
same,mode of es-LAPase inhibition,es-LAPase,uncompetitive
same,HIV-1 proviral copies,"HIV-1 (HTLVIIIb) [2]; Day 0 post-infection, matrix-bound, 40 ng/5 ml",0 copies
same,HIV-1 proviral copies,"HIV-1 (HTLVIIIb) [2]; Day 3 post-infection, matrix-bound, 40 ng/5 ml",4 ± 1 copies
same,HIV-1 proviral copies,"HIV-1 (HTLVIIIb) [2]; Day 5 post-infection, matrix-bound, 40 ng/5 ml",12 ± 3 copies
same,HIV-1 proviral copies,"HIV-1 (HTLVIIIb) [2]; Day 7 post-infection, matrix-bound, 40 ng/5 ml",122 ± 8 copies
same,number of HIV-1 proviral copies compared to control cells (in words),"HIV-1 (HTLVIIIb) [2]; matrix-bound, incubated with HUT 78 cells 7 hours prior to infection",significantly reduces
